What was measured:
[1] = test system: rat; conditions: Prenatal developmental toxicity study, sprague dawley, Oral, Gavage/Intubation, dose end: 15 GD
[2] = test system: mouse; conditions: Subchronic oral toxicity in rodents, b6c3f1, Gavage/Intubation, dose end: 13 week, group: systemic
[3] = test system: rabbit; conditions: Prenatal developmental toxicity study, new zealand white, Oral, Gavage/Intubation, dose end: 19 GD
[4] = test system: rat; conditions: Prenatal developmental toxicity study, sprague dawley, Oral, Gavage/Intubation, dose end: 15 GD; remark: listed apart in the source
[5] = test system: rat; conditions: Sub-acute dermal toxicity, sprague dawley, Topical, dose end: 28 day, group: systemic
[6] = test system: rat; conditions: Multigenerational reproductive toxicity study; sprague dawley; Oral; Gavage/Intubation; dose end: 2 generation; group: parental; systemic / organ weight / liver / nos
[7] = test system: rat; conditions: Subchronic oral toxicity in rodents, fischer, Gavage/Intubation, dose end: 13 week, group: systemic
[8] = test system: mouse; conditions: Sub-acute repeat dose toxicity, b6c3f1, Oral, Gavage/Intubation, dose end: 14 day, group: systemic
[9] = test system: rat; conditions: Sub-acute repeat dose toxicity, fischer, Oral, Gavage/Intubation, dose end: 14 day, group: systemic
[10] = test system: rat; conditions: Developmental neurotoxicity study, wistar, Oral, Water, dose end: 45 PND, group: cannot be grouped
[11] = test system: rat; conditions: Developmental neurotoxicity study; long evans; Inhalation; Whole-Body; dose end: 160 PND; group: cannot be grouped; systemic / in life observation / body weight / body weight + developmental / developmental landmark / vaginal opening / vaginal opening + …
[12] = test system: dog; conditions: Carcinogenicity; beagle; Oral; Capsule; dose end: 109 month; group: systemic; systemic / pathology microscopic / urinary bladder / carcinoma + systemic / clinical chemistry / alanine aminotransferase (alt/sgpt) / …
[13] = test system: mouse; conditions: Sub-acute repeat dose toxicity, b6c3f1, Oral, Water, dose end: 14 day, group: systemic
[14] = test system: rabbit; conditions: Prenatal developmental toxicity study; new zealand white; Oral; Water; dose end: 19 GD; group: maternal; systemic / in life observation / body weight / body weight gain + systemic / in life observation / food consumption / food consumption + …
[15] = test system: mouse; conditions: Combined chronic toxicity/carcinogenicity; b6c3f1; Oral; Water; dose end: 103 week; group: systemic; systemic / clinical chemistry / flouride / fluoride + systemic / in life observation / clinical signs / tooth-attrition + systemic / in life…
[16] = test system: rat; conditions: Combined chronic toxicity/carcinogenicity; fischer; Oral; Water; dose end: 103 week; group: systemic; systemic / clinical chemistry / flouride / fluoride + systemic / in life observation / clinical signs / tooth-mottling + systemic / in life …
[17] = test system: rat; conditions: Sub-acute repeat dose toxicity, fischer, Oral, Water, dose end: 14 day, group: systemic
[18] = test system: rat; conditions: Prenatal developmental toxicity study; other; Oral; Water; dose end: 15 GD; group: maternal; systemic / in life observation / body weight / body weight gain + systemic / in life observation / water consumption / water consumption
[19] = test system: rat; conditions: Prenatal developmental toxicity study, other, Oral, Water, dose end: 20 GD, group: maternal
[20] = test system: rat; conditions: Subchronic oral toxicity in rodents, fischer, Water, dose end: 6 month, group: systemic
[21] = test system: rat; conditions: Multigenerational reproductive toxicity study, CD CRL:CD-BR, Oral, Water, dose end: 2 generation
[22] = test system: mouse; conditions: Subchronic oral toxicity in rodents, B6C3F1, Water, dose end: 6 month, group: systemic
[23] = test system: rat; conditions: Carcinogenicity, sprague dawley, Oral, Feed, dose end: 24 month, group: systemic
[24] = group: developmental, developmental / developmental malformation / bone / supernumerary + systemic / in life observation / body weight / fetal weight
[25] = group: maternal, systemic / in life observation / clinical signs / body surface staining + systemic / in life observation / clinical signs / salivation + …
[26] = systemic / pathology microscopic / liver / degeneration
[27] = systemic / pathology microscopic / liver / degeneration + systemic / in life observation / body weight / body weight + systemic / in life …
[28] = group: developmental, developmental / developmental malformation / bone / absent + developmental / developmental malformation / bone / malpositioned + …
[29] = group: maternal, systemic / in life observation / body weight / body weight gain + systemic / in life observation / food consumption / food consumption
[30] = group: maternal, systemic / in life observation / body weight / body weight gain + systemic / in life observation / food consumption / food consumption + …
[31] = group: developmental, systemic / in life observation / body weight / fetal weight
[32] = systemic / in life observation / body weight / body weight gain + systemic / in life observation / clinical signs / erythema + systemic / in…
[33] = systemic / in life observation / clinical signs / erythema + systemic / pathology microscopic / skin / edema + systemic / in life …
[34] = systemic / in life observation / body weight / body weight + systemic / in life observation / clinical signs / defecation (diarrhea)
[35] = systemic / in life observation / body weight / body weight
[36] = systemic / in life observation / body weight / body weight + systemic / in life observation / clinical signs / fur (altered appearance) + …
[37] = systemic / in life observation / body weight / body weight gain
[38] = systemic / clinical chemistry / dopamine / dopamine + systemic / clinical chemistry / protein / protein + systemic / in life observation / …
[39] = systemic / in life observation / body weight / body weight + systemic / in life observation / clinical signs / dehydration + systemic / in …
[40] = systemic / in life observation / body weight / body weight gain + systemic / in life observation / food consumption / food consumption + …
[41] = systemic / pathology gross / stomach / hemorrhage + systemic / pathology gross / stomach / ulcer + systemic / pathology microscopic / …
[42] = group: offspring, systemic / in life observation / clinical signs / tooth nos
[43] = group: parental, systemic / in life observation / water consumption / water consumption + systemic / pathology microscopic / stomach / hyperkeratosis + …
[44] = systemic / in life observation / clinical signs / tooth-dysplasia + systemic / in life observation / clinical signs / tooth-discolored + …
[45] = systemic / organ weight / [other] / absolute + systemic / organ weight / [other] / relative to body weight + systemic / organ weight / …

O=S(=O)([O-])[O-].OC[P+](CO)(CO)CO.OC[P+](CO)(CO)CO [Tetrakis(hydroxymethyl)phosphonium sulfate]
LEL [1, 24]: 60 mg/kg/day
LOAEL [1, 24]: 60 mg/kg/day
NEL [1, 24]: 30 mg/kg/day
NOAEL [1, 24]: 30 mg/kg/day
LEL [1, 25]: 30 mg/kg/day
LOAEL [1, 25]: 30 mg/kg/day
NEL [1, 25]: 15 mg/kg/day
NOAEL [1, 25]: 15 mg/kg/day
LEL [2, 26]: 20 mg/kg/day
LOAEL [2, 26]: 20 mg/kg/day
NEL [2, 27]: 10 mg/kg/day
NOAEL [2, 27]: 10 mg/kg/day
LEL [3, 28]: 60 mg/kg/day
LOAEL [3, 28]: 60 mg/kg/day
NEL [3, 28]: 18 mg/kg/day
NOAEL [3, 28]: 18 mg/kg/day
LOAEL [3, 29]: 60 mg/kg/day
LEL [3, 30]: 60 mg/kg/day
NEL [3, 30]: 18 mg/kg/day
NOAEL [3, 30]: 18 mg/kg/day
LEL [4, 31]: 60 mg/kg/day
LOAEL [4, 31]: 60 mg/kg/day
NEL [4, 31]: 30 mg/kg/day
NOAEL [4, 31]: 30 mg/kg/day
LEL [4, 29]: 60 mg/kg/day
LOAEL [4, 29]: 60 mg/kg/day
NEL [4, 30]: 30 mg/kg/day
NOAEL [4, 30]: 30 mg/kg/day
LOAEL [5, 32]: > 500 mg/kg/day
NOAEL [5, 32]: ≥ 500 mg/kg/day
LEL [5, 33]: 25 mg/kg/day
NEL [5, 33]: < 25 mg/kg/day
LEL [6]: 15 mg/kg/day
LOAEL [6]: > 15 mg/kg/day
NEL [6]: 7.5 mg/kg/day
NOAEL [6]: ≥ 15 mg/kg/day
LEL [7, 34]: 5 mg/kg/day
NEL [7, 34]: < 5 mg/kg/day
NOAEL ([7]; systemic / in life observation / body weight / body weight + systemic / in life observation / clinical signs / defecation (diarrhea) + …): 20 mg/kg/day
LOAEL ([7]; systemic / in life observation / body weight / body weight + systemic / pathology microscopic / liver / degeneration): 40 mg/kg/day
LEL [8, 35]: 25 mg/kg/day
LOAEL [8, 35]: 50 mg/kg/day
NEL [8, 36]: 12.5 mg/kg/day
NOAEL [8, 36]: 25 mg/kg/day
LOAEL ([9]; systemic / in life observation / body weight / body weight + systemic / in life observation / body weight / body weight gain): 25 mg/kg/day
NOAEL ([9]; systemic / in life observation / body weight / body weight + systemic / in life observation / body weight / body weight gain + systemic / in…): 12.5 mg/kg/day
LEL [9, 37]: 25 mg/kg/day
NEL ([9]; systemic / in life observation / body weight / body weight gain + systemic / in life observation / mortality / mortality): 12.5 mg/kg/day

CO [Methanol]
LOAEL [10, 38]: > 2000 mg/kg/day
NEL [10, 38]: 500 mg/kg/day
NOAEL [10, 38]: ≥ 2000 mg/kg/day
LEL ([10]; systemic / clinical chemistry / protein / protein + systemic / clinical chemistry / dopamine / dopamine + systemic / in life observation / …): 1000 mg/kg/day
LEL [11]: 6110 mg/kg/day
LOAEL [11]: > 6110 mg/kg/day
NEL [11]: < 6110 mg/kg/day
NOAEL [11]: ≥ 6110 mg/kg/day

Nc1ccc2ccccc2c1 [2-Naphthylamine]
LEL [12]: 18.4 mg/kg/day
LOAEL [12]: > 18.4 mg/kg/day
NEL [12]: < 18.4 mg/kg/day
NOAEL [12]: ≥ 18.4 mg/kg/day

[F-].[Na+] [Sodium fluoride]
LOAEL [13, 35]: 7.5 mg/kg/day
NOAEL [13, 35]: < 7.5 mg/kg/day
NEL ([13]; systemic / in life observation / body weight / body weight + systemic / in life observation / water consumption / water consumption): 60 mg/kg/day
LEL ([13]; systemic / in life observation / body weight / body weight + systemic / in life observation / water consumption / water consumption + …): 120 mg/kg/day
LEL [14]: 29 mg/kg/day
LOAEL [14]: > 29 mg/kg/day
NEL [14]: 18 mg/kg/day
NOAEL [14]: ≥ 29 mg/kg/day
LEL [15]: 2.4 mg/kg/day
LOAEL [15]: 2.4 mg/kg/day
NEL [15]: < 2.4 mg/kg/day
NOAEL [15]: < 2.4 mg/kg/day
LEL [16]: 1.3 mg/kg/day
LOAEL [16]: 1.3 mg/kg/day
NEL [16]: < 1.3 mg/kg/day
NOAEL [16]: < 1.3 mg/kg/day
LOAEL [17, 35]: 5 mg/kg/day
LEL [17, 39]: 20 mg/kg/day
NEL [17, 39]: 10 mg/kg/day
NOAEL [17, 39]: 2.5 mg/kg/day
LEL [18]: 27 mg/kg/day
LOAEL [18]: > 27 mg/kg/day
NEL [18]: 18 mg/kg/day
NOAEL [18]: ≥ 27 mg/kg/day
LOAEL [19, 40]: > 25.1 mg/kg/day
NEL [19, 40]: 15.6 mg/kg/day
NOAEL [19, 40]: ≥ 25.1 mg/kg/day
LEL ([19]; systemic / in life observation / water consumption / water consumption): 24.7 mg/kg/day
LOAEL [20, 41]: 15 mg/kg/day
NEL [20, 41]: 1.5 mg/kg/day
NOAEL [20, 41]: 5 mg/kg/day
LEL ([20]; systemic / pathology microscopic / stomach / hyperplasia): 5 mg/kg/day
LEL [21, 42]: 12.5 mg/kg/day
LOAEL [21, 42]: > 12.5 mg/kg/day
NEL [21, 42]: 8.75 mg/kg/day
NOAEL [21, 42]: ≥ 12.5 mg/kg/day
LOAEL [21, 43]: > 12.5 mg/kg/day
NEL [21, 43]: 1.25 mg/kg/day
NOAEL [21, 43]: ≥ 12.5 mg/kg/day
LEL ([21]; group: parental, systemic / pathology microscopic / stomach / hyperkeratosis + systemic / in life observation / water consumption / water consumption): 5 mg/kg/day
LOAEL [22, 37]: 30 mg/kg/day
NOAEL ([22]; systemic / in life observation / body weight / body weight gain + systemic / in life observation / clinical signs / [other] + systemic / in …): 15 mg/kg/day
NEL ([22]; systemic / in life observation / body weight / body weight gain + systemic / pathology microscopic / bone / proliferation + systemic / in …): 1.5 mg/kg/day
LEL ([22]; systemic / pathology microscopic / bone / proliferation): 7.5 mg/kg/day
LEL [23, 44]: 4 mg/kg/day
NEL [23, 44]: < 4 mg/kg/day
LOAEL [23, 45]: > 25 mg/kg/day
NOAEL [23, 45]: ≥ 25 mg/kg/day

— EPA's ToxRefDB 2
